Laboratory results taken from article PMC11392244, “Characterization of a unique catechol-O-methyltransferase as a molecular drug target in parasitic filarial nematodes” (PLOS Neglected Tropical Diseases, 2024).
“And” between values parts separate entries of the source, which are not always exact repeats. Equal values may be shown once. Read-outs that look alike come from different tables or passages of the source.

What was measured:
mammalian cells = settings: read-out: Cytotoxicity IC50, ref Zhang et al., [30]; cited from earlier work
mice = settings: ref [59]; cited from earlier work
D. immitis microfilariae = test: In vitro efficacy against live D. immitis microfilariae (motility, completely immotile %); type: cell-based, Dirofilaria immitis; settings: for Completely Immotile Microfilariae (%): single experiments
DiMT protein = type: biochemical, Dirofilaria immitis
Gram-positive bacteria = tested on: Gram-positive bacteria; parameters: method as in PMID 4622052; settings: in vitro and in vivo; ref [59]; cited from earlier work

CO[C@@H]1/C=C/O[C@@]2(C)Oc3c(C)c(O)c4c(c3C2=O)C(=N[C@@H]2CC[C@@H](O)O[C@H]2C)C=C(NC(=O)/C(C)=C\C(=O)[C@@H]2C[C@@H]2[C@H](O)[C@@H](C)[C@@H](O)[C@@H](C)[C@H](OC(C)=O)[C@@H]1C)C4=O [NSC177383, tolypomycin-Y]
IC50 (mammalian cells): 85.5 µM | toxicity in mice (mice): low toxicity | Mean completely Immotile (%) (D. immitis microfilariae; 10 µM, 0 h): 0% | Mean completely Immotile (%) (D. immitis microfilariae; 10 µM, 24 h): 7.83% | Mean completely Immotile (%) (D. immitis microfilariae; 10 µM, 48 h): 18.5% | Mean completely Immotile (%) (D. immitis microfilariae; 10 µM, 72 h): 27.33% | Mean completely Immotile (%) (D. immitis microfilariae; 10 µM, 96 h): 38% | Mean completely Immotile (%) (D. immitis microfilariae; 10 µM, 120 h): 56.33% | Mean completely Immotile (%) (D. immitis microfilariae; 25 µM, 0 h): 0% | Mean completely Immotile (%) (D. immitis microfilariae; 25 µM, 24 h): 25.33% | Mean completely Immotile (%) (D. immitis microfilariae; 25 µM, 48 h): 33% | Mean completely Immotile (%) (D. immitis microfilariae; 25 µM, 72 h): 71.33% | Mean completely Immotile (%) (D. immitis microfilariae; 25 µM, 96 h): 91.33% | Mean completely Immotile (%) (D. immitis microfilariae; 40 µM, 0 h): 0% | Mean completely Immotile (%) (D. immitis microfilariae; 40 µM, 24 h): 57.67% | Mean completely Immotile (%) (D. immitis microfilariae; 40 µM, 48 h): 87.67% | Mean completely Immotile (%) (D. immitis microfilariae; 40 µM, 72 h): 96.67% | Mean completely Immotile (%) (D. immitis microfilariae; 40 µM, 96 h): 100% | Mean completely Immotile (%) (D. immitis microfilariae; 40 µM, 120 h): 100% | Mean completely Immotile (%) (D. immitis microfilariae; 50 µM, 0 h): 0% | Mean completely Immotile (%) (D. immitis microfilariae; 50 µM, 24 h): 64.67% | Mean completely Immotile (%) (D. immitis microfilariae; 50 µM, 48 h): 93.67% | Mean completely Immotile (%) (D. immitis microfilariae; 50 µM, 72 h): 100% | Mean completely Immotile (%) (D. immitis microfilariae; 50 µM, 96 h): 100% | Mean completely Immotile (%) (D. immitis microfilariae; 50 µM, 120 h): 100% | Mean completely Immotile (%) (D. immitis microfilariae; 75 µM, 0 h): 0% | Mean completely Immotile (%) (D. immitis microfilariae; 75 µM, 24 h): 95.33% | Mean completely Immotile (%) (D. immitis microfilariae; 75 µM, 48 h): 100% | Mean completely Immotile (%) (D. immitis microfilariae; 75 µM, 72 h): 100% | Mean completely Immotile (%) (D. immitis microfilariae; 75 µM, 96 h): 100% | Mean completely Immotile (%) (D. immitis microfilariae; 75 µM, 120 h): 100% | Mean completely Immotile (%) (D. immitis microfilariae; 100 µM, 0 h): 0% | Mean completely Immotile (%) (D. immitis microfilariae; 100 µM, 24 h): 100% | Mean completely Immotile (%) (D. immitis microfilariae; 100 µM, 48 h): 100% | Mean completely Immotile (%) (D. immitis microfilariae; 100 µM, 72 h): 100% | Mean completely Immotile (%) (D. immitis microfilariae; 100 µM, 96 h): 100% | Mean completely Immotile (%) (D. immitis microfilariae; 100 µM, 120 h): 100% | EC50 (D. immitis microfilariae; 96 h post-treatment, read-out: Anti-parasitic EC50): 11.7 µM and 11.6 µM | Completely Immotile Microfilariae (%) (D. immitis microfilariae; 10 µM, 0 h): 0% | Completely Immotile Microfilariae (%) (D. immitis microfilariae; 10 µM, 24 h): 5% and 8.5% and 10% | Completely Immotile Microfilariae (%) (D. immitis microfilariae; 10 µM, 48 h): 15% and 19.5% and 21% | Completely Immotile Microfilariae (%) (D. immitis microfilariae; 10 µM, 72 h): 25% and 27% and 30% | Completely Immotile Microfilariae (%) (D. immitis microfilariae; 10 µM, 96 h): 35% and 38% and 41% | Completely Immotile Microfilariae (%) (D. immitis microfilariae; 10 µM, 120 h): 50% and 61% and 58% | Completely Immotile Microfilariae (%) (D. immitis microfilariae; 25 µM, 0 h): 0% | Completely Immotile Microfilariae (%) (D. immitis microfilariae; 25 µM, 24 h): 25% and 28% and 23% | Completely Immotile Microfilariae (%) (D. immitis microfilariae; 25 µM, 48 h): 30% and 37% and 32% | Completely Immotile Microfilariae (%) (D. immitis microfilariae; 25 µM, 72 h): 70% and 76% and 68% | Completely Immotile Microfilariae (%) (D. immitis microfilariae; 25 µM, 96 h): 90% and 95% and 89% | Completely Immotile Microfilariae (%) (D. immitis microfilariae; 25 µM, 120 h): 100% | Completely Immotile Microfilariae (%) (D. immitis microfilariae; 40 µM, 0 h): 0% | Completely Immotile Microfilariae (%) (D. immitis microfilariae; 40 µM, 24 h): 50% and 65% and 58% | Completely Immotile Microfilariae (%) (D. immitis microfilariae; 40 µM, 48 h): 85% and 90% and 88% | Completely Immotile Microfilariae (%) (D. immitis microfilariae; 40 µM, 72 h): 95% and 98% and 97% | Completely Immotile Microfilariae (%) (D. immitis microfilariae; 40 µM, 96 h): 100% | Completely Immotile Microfilariae (%) (D. immitis microfilariae; 40 µM, 120 h): 100% | Completely Immotile Microfilariae (%) (D. immitis microfilariae; 50 µM, 0 h): 0% | Completely Immotile Microfilariae (%) (D. immitis microfilariae; 50 µM, 24 h): 60% and 78% and 56% | Completely Immotile Microfilariae (%) (D. immitis microfilariae; 50 µM, 48 h): 90% and 95% and 96% | Completely Immotile Microfilariae (%) (D. immitis microfilariae; 50 µM, 72 h): 100% | Completely Immotile Microfilariae (%) (D. immitis microfilariae; 50 µM, 96 h): 100% | Completely Immotile Microfilariae (%) (D. immitis microfilariae; 50 µM, 120 h): 100% | Completely Immotile Microfilariae (%) (D. immitis microfilariae; 75 µM, 0 h): 0% | Completely Immotile Microfilariae (%) (D. immitis microfilariae; 75 µM, 24 h): 95% and 93% and 98% | Completely Immotile Microfilariae (%) (D. immitis microfilariae; 75 µM, 48 h): 100% | Completely Immotile Microfilariae (%) (D. immitis microfilariae; 75 µM, 72 h): 100% | Completely Immotile Microfilariae (%) (D. immitis microfilariae; 75 µM, 96 h): 100% | Completely Immotile Microfilariae (%) (D. immitis microfilariae; 75 µM, 120 h): 100% | Completely Immotile Microfilariae (%) (D. immitis microfilariae; 100 µM, 0 h): 0% | Completely Immotile Microfilariae (%) (D. immitis microfilariae; 100 µM, 24 h): 100% | Completely Immotile Microfilariae (%) (D. immitis microfilariae; 100 µM, 48 h): 100% | Completely Immotile Microfilariae (%) (D. immitis microfilariae; 100 µM, 72 h): 100% | Completely Immotile Microfilariae (%) (D. immitis microfilariae; 100 µM, 96 h): 100% | Completely Immotile Microfilariae (%) (D. immitis microfilariae; 100 µM, 120 h): 100% | effect on microfilariae (D. immitis microfilariae; up to 120 h of culture): killing effect | Mean Percent Inhibition (DiMT protein; 40 µM): 17.3% and 18.1% and 14.9% | Mean Percent Inhibition, Average (DiMT protein; 40 µM): 16.8% | Mean Percent Inhibition (DiMT protein; 80 µM): 30.5% and 30.7% and 34.4% | Mean Percent Inhibition, Average (DiMT protein; 80 µM): 31.9% | Mean Percent Inhibition (DiMT protein; 120 µM): 45.9% and 41.2% and 40.2% | Mean Percent Inhibition, Average (DiMT protein; 120 µM): 42.4% | Mean Percent Inhibition (DiMT protein; 140 µM): 50.6% and 45.4% and 42.2% | Mean Percent Inhibition, Average (DiMT protein; 140 µM): 46.1% | Mean Percent Inhibition (DiMT protein; 180 µM): 63.6% and 62.4% and 64.2% | Mean Percent Inhibition, Average (DiMT protein; 180 µM): 63.4% | IC50 (DiMT protein; read-out: IC 50 (μM ± SEM)): 140 ± 2.2 µM | antimicrobial activities against Gram-positive bacteria (Gram-positive bacteria): strong antimicrobial activities
